From US4740233A, “Substituted 1,2,4-triazolo[1,5-a]-pyrimidine-2-sulfonamides and compositions and methods of controlling undesired vegetation and suppressing the nitrification of ammonium nitrogen in soil” (The Dow Chemical Company, priority 1986, dated 1988)

Tests used:
[1] = tested on: nitrification of ammonium nitrogen; assay: Suppression of nitrification of ammonium nitrogen in soil; conditions: 27° C.
Outline: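 Value is % NH4-N remaining after a two-week, 27° C incubation of treated soil held at 1/3 bar tension moisture. Nitrate was measured with an ion-selective electrode after extraction with ammonium sulfate solution and 10 min shaking.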

[2] = tested on: annual sugar beet variety (SLC03); assay: Plant growth regulator activity, postemergence; assay type: in vivo; conditions: Beta vulgaris, post-emergence, 672 h, 4 weeks after spraying; read-out: Bolting Inhibition (postemergence), concentration with observed effect
From the text: (§1) Using a regular biennial variety, even a bolting-susceptible variety would require a cold treatment of around 10-16 weeks plus a hormone treatement in conjunction with specific light intensities. Thus, for a screening organism, we selected one which would consistently produce bolting on a regular schedule. The screen is run with an annual sugar beet variety (SLC03) provided by Dr. Richard J. Hecker, Fort Collins, Colo. This variety is an inbred which bolts in the 6- to 8-leaf stage without any need for vernalization. This allows the screen to be run entirely in the greenhouse with all 110 chemical compounds tested on one tray. The sugarbeets are grown in 3×3 inch square pots in a greenhouse sandy loam potting mix. The sugarbeets are sprayed with test compounds when they are 2 to 3 weeks old (2 true leaves). The compounds are dissolved in acetone and diluted with water containing Tween 20 as a wetting agent. The concentration of acetone in the final spray is 20% and the concentration of Tween 20 is 0.05 percent. The plants are examined for the appearance of a bolt 4 weeks after spraying.

soybean [3] = assay: Postemergent control of plant species; assay type: in vivo, Glycine max.; conditions: Glycine max, post-emergence, 336 h, read-out: percent postemergent control
Outline: (§2)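 Spray emulsion: acetone stock at twice final concentration plus equal volume water with 0.1% wetting agent, applied to separated greenhouse beds at 2-4 leaf stage. Assessed at ~two weeks; score reflects growth reduction compared with untreated plants.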

velvetleaf [4] = assay: Postemergent control of plant species; assay type: in vivo, Abutilon theophrasti; conditions: Abutilon theophrasti, post-emergence, 336 h, read-out: percent postemergent control
Outline: as §2

cocklebur = assay: Postemergent control of plant species; assay type: in vivo, Xanthium spp.; conditions: Xanthium strumarium, post-emergence, 336 h, read-out: percent postemergent control
Outline: as §2

pigweed = assay: Postemergent control of plant species; assay type: in vivo, Amaranthus spp.; conditions: Amaranthus retroflexus, post-emergence, 336 h, read-out: percent postemergent control
Outline: as §2

sorghum [5] = assay: Postemergent control of plant species; assay type: in vivo, Sorghum vulgare; conditions: Sorghum, post-emergence, 336 h, read-out: percent postemergent control
Outline: as §2

[6] = tested on: annual sugar beet variety (SLC03); assay: Plant growth regulator activity, preemergence; assay type: in vivo; conditions: Beta vulgaris, pre-emergence; 6-7 weeks; read-out: Bolting Inhibition (preemergence), concentration with observed effect
From the text: as §1
Preemergence tests are conducted by spraying formulated chemical on seeds placed on potting soil. The sprayed seeds are then covered with 1/4 inch of potting soil and the pots are watered. Bolting is evaluated 6-7 weeks after the initiation of the test. At this time untreated plants have a vigorous bolting stem with visible flowers.

yellow foxtail [7] = assay: Postemergent control of plant species; assay type: in vivo, Setaria lutescens; conditions: Setaria, post-emergence, 336 h, read-out: percent postemergent control
Outline: as §2

rape [8] = assay: Postemergent control of plant species; assay type: in vivo, Brassica napus; conditions: Brassica napus, post-emergence, 336 h, read-out: percent postemergent control
Outline: as §2

rice [9] = assay: Postemergent control of plant species; assay type: in vivo, Oryza sativa; conditions: Oryza sativa, post-emergence, 336 h, read-out: percent postemergent control
Outline: as §2

corn [10] = assay: Postemergent control of plant species; assay type: in vivo, Zea mays; conditions: Zea mays, post-emergence, 336 h, read-out: percent postemergent control
Outline: as §2

sugar beet [11] = assay: Postemergent control of plant species; assay type: in vivo, Beta saccharifera; conditions: Beta vulgaris, post-emergence, 336 h, read-out: percent postemergent control
Outline: as §2

wild oats [12] = assay: Postemergent control of plant species; assay type: in vivo, Avena fatua; conditions: Avena fatua, post-emergence, 336 h, read-out: percent postemergent control
Outline: as §2

cotton [13] = assay: Postemergent control of plant species; assay type: in vivo, Gossypium spp.; conditions: Gossypium hirsutum, post-emergence, 336 h, read-out: percent postemergent control
Outline: as §2

wheat [14] = assay: Postemergent control of plant species; assay type: in vivo, Triticum aestivum; conditions: Triticum aestivum, post-emergence, 336 h, read-out: percent postemergent control
Outline: as §2

barnyardgrass [15] = assay: Postemergent control of plant species; assay type: in vivo, Echinochloa crusgalli; conditions: Echinochloa crus-galli, post-emergence, 336 h, read-out: percent postemergent control
Outline: as §2

yellow nutsedge [16] = assay: Postemergent control of plant species; assay type: in vivo, Cyperus esculentus; conditions: Cyperus, post-emergence, 336 h, read-out: percent postemergent control
Outline: as §2

jimsonweed = assay: Postemergent control of plant species; assay type: in vivo, Datura stramonium; conditions: Datura stramonium, post-emergence, 336 h, read-out: percent postemergent control
Outline: as §2

crabgrass = assay: Postemergent control of plant species; assay type: in vivo, Digitaria spp.; conditions: Digitaria sanguinalis, post-emergence, 336 h, read-out: percent postemergent control
Outline: as §2

annual morning glory [17] = assay: Postemergent control of plant species; assay type: in vivo, Ipomoea spp.; conditions: Ipomoea, post-emergence, 336 h, read-out: percent postemergent control
Outline: as §2

johnson grass [18] = assay: Postemergent control of plant species; assay type: in vivo, Sorghum halepense; conditions: Sorghum halepense, post-emergence, 336 h, read-out: percent postemergent control
Outline: as §2

soybean [19] = assay: Preemergent control of plant species; assay type: in vivo, Glycine max.; conditions: Glycine max, pre-emergence, 336 h; 0.25 lb/acre; read-out: percent preemergent control
Outline: (§3)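 Test compositions were applied evenly to the surface of freshly seeded soil beds and kept under greenhouse conditions for two weeks. Percent control reflects growth reduction compared with water-treated beds of the same species.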

cotton [20] = assay: Preemergent control of plant species; assay type: in vivo, Gossypium spp.; conditions: Gossypium hirsutum, pre-emergence, 336 h; 0.25 lb/acre; read-out: percent preemergent control
Outline: as §3

velvetleaf [21] = assay: Preemergent control of plant species; assay type: in vivo, Abutilon theophrasti; conditions: Abutilon theophrasti, pre-emergence, 336 h; 0.25 lb/acre; read-out: percent preemergent control
Outline: as §3

wild oats [22] = assay: Preemergent control of plant species; assay type: in vivo; conditions: Avena fatua, pre-emergence, 336 h; 0.25 lb/acre; read-out: percent preemergent control
Outline: as §3

sorghum [23] = assay: Preemergent control of plant species; assay type: in vivo, Sorghum vulgare; conditions: Sorghum, pre-emergence, 336 h; 0.25 lb/acre; read-out: percent preemergent control
Outline: as §3

yellow nutsedge [24] = assay: Preemergent control of plant species; assay type: in vivo, Cyperus esculentus; conditions: Cyperus, pre-emergence, 336 h; 0.25 lb/acre; read-out: percent preemergent control
Outline: as §3

corn [25] = assay: Preemergent control of plant species; assay type: in vivo, Zea mays; conditions: Zea mays, pre-emergence, 336 h; 0.25 lb/acre; read-out: percent preemergent control
Outline: as §3

rape [26] = assay: Preemergent control of plant species; assay type: in vivo, Brassica napus; conditions: Brassica napus, pre-emergence, 336 h; 0.25 lb/acre; read-out: percent preemergent control
Outline: as §3

barnyardgrass [27] = assay: Preemergent control of plant species; assay type: in vivo, Echinochloa crusgalli; conditions: Echinochloa crus-galli, pre-emergence, 336 h; 0.25 lb/acre; read-out: percent preemergent control
Outline: as §3

yellow foxtail [28] = assay: Preemergent control of plant species; assay type: in vivo, Setaria lutescens; conditions: Setaria, pre-emergence, 336 h; 0.25 lb/acre; read-out: percent preemergent control
Outline: as §3

annual morning glory [29] = assay: Preemergent control of plant species; assay type: in vivo, Ipomoea spp.; conditions: Ipomoea, pre-emergence, 336 h; 0.25 lb/acre; read-out: percent preemergent control
Outline: as §3

rice [30] = assay: Preemergent control of plant species; assay type: in vivo, Oryza sativa; conditions: Oryza sativa, pre-emergence, 336 h; 0.25 lb/acre; read-out: percent preemergent control
Outline: as §3

wheat [31] = assay: Preemergent control of plant species; assay type: in vivo, Triticum aestivum; conditions: Triticum aestivum, pre-emergence, 336 h; 0.25 lb/acre; read-out: percent preemergent control
Outline: as §3

johnson grass [32] = assay: Preemergent control of plant species; assay type: in vivo, Sorghum halepense; conditions: Sorghum halepense, pre-emergence, 336 h; 0.25 lb/acre; read-out: percent preemergent control
Outline: as §3

sugar beet [33] = assay: Preemergent control of plant species; assay type: in vivo, Beta saccharifera; conditions: Beta vulgaris, pre-emergence, 336 h; 0.25 lb/acre; read-out: percent preemergent control
Outline: as §3

## Cc1cc(C)n2nc(S(=O)(=O)Nc3c(Cl)cccc3-c3ccccc3)nc2n1 [Compound 63]
[1]; 0.06 ppm
  % NH4-N Remaining After 2 Weeks Incubation: 6%
[1]; 0.25 ppm
  % NH4-N Remaining After 2 Weeks Incubation: 6%
[1]; 1 ppm
  % NH4-N Remaining After 2 Weeks Incubation: 36%
[1]; 4 ppm
  % NH4-N Remaining After 2 Weeks Incubation: 61%
[2]
  minimal effective concentration: 5 µg/mL

## COc1cccc(C=NO)c1NS(=O)(=O)c1nc2nc(C)cc(C)n2n1 [Compound 71]
Soybean [3]
  plant injury at 500 ppm: 35%
Velvetleaf [4]
  pest or weed control at 500 ppm: 70%
cocklebur
  pest or weed control at 500 ppm: 0%
pigweed
  pest or weed control at 500 ppm: 0%
Sorghum [5]
  plant injury at 500 ppm: 0%
[6]
  minimal effective concentration: 400 µg/mL
Yellow foxtail [7]
  pest or weed control at 500 ppm: 0%
Rape [8]
  plant injury at 500 ppm: 70%
Rice [9]
  plant injury at 500 ppm: 0%
Corn [10]
  plant injury at 500 ppm: 0%
Sugar beet [11]
  plant injury at 500 ppm: 70%
Wild oats [12]
  pest or weed control at 500 ppm: 0%
[1]; 0.06 ppm
  % NH4-N Remaining After 2 Weeks Incubation: 35%
[1]; 0.25 ppm
  % NH4-N Remaining After 2 Weeks Incubation: 49%
[1]; 1 ppm
  % NH4-N Remaining After 2 Weeks Incubation: 84%
[1]; 4 ppm
  % NH4-N Remaining After 2 Weeks Incubation: 90%
Cotton [13]
  plant injury at 500 ppm: 75%
Wheat [14]
  plant injury at 500 ppm: 0%
Barnyardgrass [15]
  pest or weed control at 500 ppm: 0%
Yellow nutsedge [16]
  pest or weed control at 500 ppm: 0%
jimsonweed
  pest or weed control at 500 ppm: 60%
crabgrass
  pest or weed control at 500 ppm: 20%
Annual morning glory [17]
  pest or weed control at 500 ppm: 0%
Johnson grass [18]
  pest or weed control at 500 ppm: 0%

## CC(C)c1ccn2nc(S(=O)(=O)Nc3c(Cl)cccc3Cl)nc2n1 [Compound 204]
Soybean [19]
  plant injury at 280.212 g/ha: 0%
Cotton [20]
  plant injury at 280.212 g/ha: 80%
Velvetleaf [21]
  pest or weed control at 280.212 g/ha: 0%
Wild oats [22]
  pest or weed control at 280.212 g/ha: 0%
Sorghum [23]
  plant injury at 280.212 g/ha: 60%
Yellow nutsedge [24]
  pest or weed control at 280.212 g/ha: 0%
[1]; 0.6 ppm
  % NH4-N Remaining After 2 Weeks Incubation: 0%
[1]; 1.25 ppm
  % NH4-N Remaining After 2 Weeks Incubation: 0%
[1]; 2.5 ppm
  % NH4-N Remaining After 2 Weeks Incubation: 34%
[1]; 5 ppm
  % NH4-N Remaining After 2 Weeks Incubation: 56%
[1]; 10 ppm
  % NH4-N Remaining After 2 Weeks Incubation: 66%
Corn [25]
  plant injury at 280.212 g/ha: 40%
[2]
  minimal effective concentration: 400 µg/mL
Rape [26]
  plant injury at 280.212 g/ha: 40%
Barnyardgrass [27]
  pest or weed control at 280.212 g/ha: 0%
Yellow foxtail [28]
  pest or weed control at 280.212 g/ha: 0%
Annual morning glory [29]
  pest or weed control at 280.212 g/ha: 0%
Rice [30]
  plant injury at 280.212 g/ha: 0%
Wheat [31]
  plant injury at 280.212 g/ha: 0%
Johnson grass [32]
  pest or weed control at 280.212 g/ha: 0%
Sugar beet [33]
  plant injury at 280.212 g/ha: 90%
